The source of these data is ChEMBL document CHEMBL4152276, “Design, synthesis and biological evaluation of N-phenyl-(2,4-dihydroxypyrimidine-5-sulfonamido)benzoyl hydrazide derivatives as thymidylate synthase (TS) inhibitors and as potential antitumor drugs” (Eur J Med Chem, 2018).

Data set [1] deals with A549. The data set can be described thus: Antiproliferative activity against human A549 cells after 24 hrs by MTT assay. To be noted: A549, 24 h. The class given is functional, cell-based.
A further data set has as its system OVCAR-3. The data set can be described thus: Antiproliferative activity against human OVCAR3 cells after 24 hrs by MTT assay. The class given is functional, cell-based. The conditions noted are these: OVCAR-3, 24 h. For orientation: Formazan colour is commonly taken as a measure of viable cells.
A further data set concerns SGC-7901. The data set can be described thus: Antiproliferative activity against human SGC7901 cells after 24 hrs by MTT assay. The conditions noted are these: SGC-7901, 24 h. The class given is functional, cell-based.
In a further data set the test system is MDA-MB-231. The data set can be described thus: Antiproliferative activity against human MDA-MB-231 cells after 24 hrs by MTT assay. To be noted: MDA-MB-231, 24 h. The class given is functional, cell-based.
Data set [2] concerns A549. The data set can be described thus: Antiproliferative activity against human A549 cells at 0.512 uM after 24 hrs by MTT assay relative to control. The class given is functional.
Data set [3] concerns A549. The data set can be described thus: Antiproliferative activity against human A549 cells at 1.28 uM after 24 hrs by MTT assay relative to control. The class given is functional.
Data set [4] concerns A549. The data set can be described thus: Antiproliferative activity against human A549 cells at 3.2 uM after 24 hrs by MTT assay relative to control. The format is functional.
In data set [5] the test system is A549. The data set can be described thus: Antiproliferative activity against human A549 cells at 8 uM after 24 hrs by MTT assay relative to control. The class given is functional.
Data set [6] deals with A549. The data set can be described thus: Antiproliferative activity against human A549 cells at 20 uM after 24 hrs by MTT assay relative to control. The class given is functional.
Data set [7] can be described thus: Selectivity index, ratio of CC50 for HPAEpiC to IC50 for human A549 cells. The class given is toxicity. To be noted: HPAEpiC cells (CC50) versus A549 cells (IC50).
Data set [8] can be described thus: Selectivity index, ratio of CC50 for human IOSE80 cells to IC50 for human A549 cells. The format is toxicity. The conditions noted are these: IOSE80 cells (CC50) versus A549 cells (IC50).
The nature of data set [9]: Selectivity index, ratio of CC50 for human GES1 cells to IC50 for human A549 cells. The format is toxicity. To be noted: GES1 cells (CC50) versus A549 cells (IC50).
Data set [10] is described as follows: Selectivity index, ratio of CC50 for human HTB125 cells to IC50 for human A549 cells. The class given is toxicity. To be noted: HTB125 cells (CC50) versus A549 cells (IC50).
Data set [11] concerns A549. The data set can be described thus: Induction of apoptosis in human A549 cells assessed as early apoptotic cells at 0.5 uM after 24 hrs by annexin V-FITC/propidium iodide staining-based flow cytometric method (reference value: 1.2%). The format is functional. In general terms: In flow cytometry, cells or beads pass a laser one at a time.
Data set [12] deals with A549. The data set can be described thus: Induction of apoptosis in human A549 cells assessed as late apoptotic cells at 0.5 uM after 24 hrs by annexin V-FITC/propidium iodide staining-based flow cytometric method (reference value: 1.1%). The format is functional.
The test system of data set [13] is A549. The data set can be described thus: Induction of apoptosis in human A549 cells assessed as necrotic cells at 0.5 uM after 24 hrs by annexin V-FITC/propidium iodide staining-based flow cytometric method (reference value: 0%). The format is functional.
Data set [14] deals with A549. The data set can be described thus: Induction of apoptosis in human A549 cells assessed as viable cells at 0.5 uM after 24 hrs by annexin V-FITC/propidium iodide staining-based flow cytometric method (reference value: 97.7%). The format is functional. The conditions noted are these: A549, 24 h, read-out: Activity.
The subject of data set [15] is A549. The data set can be described thus: Induction of apoptosis in human A549 cells assessed as early apoptotic cells at 1 uM after 24 hrs by annexin V-FITC/propidium iodide staining-based flow cytometric method (reference value: 1.2%). The class given is functional.
Data set [16] has as its system A549. The data set can be described thus: Induction of apoptosis in human A549 cells assessed as late apoptotic cells at 1 uM after 24 hrs by annexin V-FITC/propidium iodide staining-based flow cytometric method (reference value: 1.1%). The class given is functional.
In data set [17] the test system is A549. The data set can be described thus: Induction of apoptosis in human A549 cells assessed as necrotic cells at 1 uM after 24 hrs by annexin V-FITC/propidium iodide staining-based flow cytometric method (reference value: 0%). The format is functional.
The subject of data set [18] is A549. The data set can be described thus: Induction of apoptosis in human A549 cells assessed as viable cells at 1 uM after 24 hrs by annexin V-FITC/propidium iodide staining-based flow cytometric method (reference value: 97.7%). The class given is functional. The conditions noted are these: A549, 24 h, read-out: Activity.
Data set [19] has as its system A549. The data set can be described thus: Induction of apoptosis in human A549 cells assessed as early apoptotic cells at 1.5 uM after 24 hrs by annexin V-FITC/propidium iodide staining-based flow cytometric method (reference value: 1.2%). The class given is functional.
Data set [20] concerns A549. The data set can be described thus: Induction of apoptosis in human A549 cells assessed as late apoptotic cells at 1.5 uM after 24 hrs by annexin V-FITC/propidium iodide staining-based flow cytometric method (reference value: 1.1%). The class given is functional.
Data set [21] relates to A549. The data set can be described thus: Induction of apoptosis in human A549 cells assessed as necrotic cells at 1.5 uM after 24 hrs by annexin V-FITC/propidium iodide staining-based flow cytometric method (reference value: 0%). The format is functional.
Data set [22] has as its system A549. The data set can be described thus: Induction of apoptosis in human A549 cells assessed as viable cells at 1.5 uM after 24 hrs by annexin V-FITC/propidium iodide staining-based flow cytometric method (reference value: 97.7%). The format is functional. The conditions noted are these: A549, 24 h, read-out: Activity.
The test system of data set [23] is A549. The data set can be described thus: Induction of apoptosis in human A549 cells assessed as early apoptotic cells at 3 uM after 24 hrs by annexin V-FITC/propidium iodide staining-based flow cytometric method (reference value: 1.2%). The class given is functional.
Data set [24] relates to A549. The data set can be described thus: Induction of apoptosis in human A549 cells assessed as late apoptotic cells at 3 uM after 24 hrs by annexin V-FITC/propidium iodide staining-based flow cytometric method (reference value: 1.1%). The format is functional.
Data set [25] has as its system A549. The data set can be described thus: Induction of apoptosis in human A549 cells assessed as necrotic cells at 3 uM after 24 hrs by annexin V-FITC/propidium iodide staining-based flow cytometric method (reference value: 0%). The format is functional.
For data set [26], the system named is A549. The data set can be described thus: Induction of apoptosis in human A549 cells assessed as viable cells at 3 uM after 24 hrs by annexin V-FITC/propidium iodide staining-based flow cytometric method (reference value: 97.7%). The class given is functional. To be noted: A549, 24 h, read-out: Activity.
The subject of data set [27] is A549. The data set can be described thus: Induction of apoptosis in human A549 cells assessed as upregulation of bax protein expression at 0.5 to 3 uM after 24 hrs by Western blot method. The format is functional, cell-based. For orientation: A western blot detects proteins with antibodies after separation by electrophoresis.
For data set [28], the system named is A549. The data set can be described thus: Induction of apoptosis in human A549 cells assessed as increase in cleaved caspase-3 levels at 0.5 to 3 uM after 24 hrs by Western blot method. The format is functional, cell-based.
Data set [29] concerns A549. The data set can be described thus: Induction of apoptosis in human A549 cells assessed as decrease in ratio of Bcl2/Bax at 0.5 uM after 24 hrs by Western blot method relative to control. The format is functional.
Data set [30] deals with A549. The data set can be described thus: Induction of apoptosis in human A549 cells assessed as decrease in ratio of Bcl2/Bax at 1 uM after 24 hrs by Western blot method relative to control. The class given is functional.
Data set [31] deals with A549. The data set can be described thus: Induction of apoptosis in human A549 cells assessed as decrease in ratio of Bcl2/Bax at 1.5 uM after 24 hrs by Western blot method relative to control. The format is functional.
In data set [32] the test system is A549. The data set can be described thus: Induction of apoptosis in human A549 cells assessed as decrease in ratio of Bcl2/Bax at 3 uM after 24 hrs by Western blot method relative to control. The class given is functional.

Structures are written as SMILES. The source made the active and inactive calls. The calls are words filed in the database; no cut-off is given here.

With `O=C(NNC(=O)c1ccccc1NS(=O)(=O)c1cnc(O)nc1O)c1cccc(Cl)c1`, the IC50 – broadly, the midpoint of a concentration-inhibition curve – in the data set on A549 [1] stood at 1.26 µM; in the data set with OVCAR-3, 2.08 µM; in the data set on SGC-7901, 1.82 µM; in the data set with MDA-MB-231 it was 4.42 µM. Further, the Activity with A549 [2] is 35.83%; in the data set with A549 [3], 51.21%; in the data set on A549 [4], 55.39%; in the data set with A549 [5], 66.28%; with A549 [6] it was 82.54%; with A549 [11] it was 6.9%. Besides, the Activity with A549 [12] is 1.6%; with A549 [13], 0.1%; in the data set on A549 [15], 9.8%; with A549 [16], 2.7%; in the data set on A549 [17] it was 0.1%; with A549 [19], 19.6%. For the same compound, the Activity was found to be 2.5% in the data set with A549 [20]; 0% in the data set on A549 [21]; 35.5% in the data set on A549 [23]; 3.9% in the data set with A549 [24]; 0.4% in the data set with A549 [25]. The selectivity ratio in [7] came to 16.7; in [8], 11.3; in data set [9], 14.2; in [10] it was 5.73. In addition, the viability at 0.5 µM in the data set with A549 [14] came out at 91.4%. In the data set with A549 [18], the viability at 1 µM stood at 87.4%. In addition, the viability at 1.5 µM in the data set with A549 [22] turned out to be 77.9%. In the data set on A549 [26], the viability at 3 µM is 60.2%. Further, the outcome in the data set on A549 [27] and in the data set with A549 [28] was Active. Moreover, the “fold change (FC)” value in the data set with A549 [29] was 0.8; in the data set with A549 [30], 0.54; in the data set with A549 [31], 0.3; with A549 [32], 0.17.

Take `Nc1nc2[nH]cc(CCc3ccc(C(=O)N[C@@H](CCC(=O)O)C(=O)O)cc3)c2c(=O)[nH]1` [PEMETREXED]: the IC50 in the data set on A549 [1] came out at 3.31 µM; with OVCAR-3, 6.9 µM; in the data set on SGC-7901, 9.08 µM; in the data set with MDA-MB-231, 3.85 µM. Besides, the Activity in the data set on A549 [2] is listed as 22.93%; in the data set with A549 [3], 49.43%; in the data set with A549 [4], 56.2%; in the data set on A549 [5], 61.82%; with A549 [6], 64.42%. The selectivity ratio in [7] came out at 7.51; in data set [8], 3.59; in data set [9], 3.22; in [10], 6.02.

Take `O=C(NNC(=O)c1ccccc1F)c1ccc(NS(=O)(=O)c2cnc(O)nc2O)cc1`: the IC50 in the data set on A549 [1] was 7.61 µM; in the data set on OVCAR-3, 16 µM; in the data set with SGC-7901 it was greater than 20 µM; with MDA-MB-231, greater than 20 µM.

Regarding `O=C(NNc1cccc(Cl)c1)c1ccc(NS(=O)(=O)c2cnc(O)nc2O)cc1`, the half-maximal inhibitory concentration (IC50) in the data set with A549 [1] came out at 7.29 µM; in the data set on OVCAR-3, 8.41 µM; in the data set with SGC-7901, 11.6 µM; in the data set on MDA-MB-231, 17.4 µM.

Take `Cc1ccccc1NNC(=O)c1ccc(NS(=O)(=O)c2cnc(O)nc2O)cc1`: the IC50 in the data set on A549 [1] was 14.5 µM; in the data set on OVCAR-3 it was greater than 20 µM; in the data set on SGC-7901 it was greater than 20 µM; with MDA-MB-231, greater than 20 µM.
